Reference: patent EP1210336B1, “SUBSTITUTED BENZIMIDAZOLES AS NON-NUCLEOSIDE INHIBITORS OF REVERSE TRANSCRIPTASE” (THE UNITED STATES OF AMERICA, as represented by the …, priority 1999, dated 2001)
Where two headings read alike, the source gives them in different places.

Tests used:
[1] = tested on: WT virus (NL4-3); test: microbe, parasite or virus in culture; format: cell-based, HIV-1; conditions: Human immunodeficiency virus 1, NL43, CEM-SS
How it was run: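 CEM-SS cells (5 x 10^3/well) infected with HIV-1 at an MOI giving complete killing by day 6 (e.g., 0.01-0.05), with serial half-log compound dilutions in triplicate. After 6 days at 37°C, viability read by XTT reduction at 450 nm. CIC50 derived from protection against cytopathic killing.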

[2] = tested on: HIV-1 isolate 4xAZT/L100I; test: Cytopathic cell killing assay, cross-resistance profile, infected MT-4 cells; format: cell-based; conditions: Human immunodeficiency virus 1, MT4
Description: The various HIV isolates tested in the Figures are those corresponding to wild-type virus (NL4-3) and the other strains listed by their RT mutations. The three 4xAZT isolates included in the Figures represent AZT drug-resistant variants. […]
(§1) Briefly, in this method cells (e.g., the CEM-SS cell line, available from the NIAID AIDS Research and Reference Program [ARRRP]) were seeded at a density of 5 x 10^3 cells/well, into the wells of a 96-well microtiter plate. The cells were then infected with HIV virus (either mutant or WT), at a multiplicity of infection (MOI) previously determined to provide complete cell killing by 6 days of culture post-infection (e.g., MOI of 0.01-0.05). Each of the HIV isolates was pre-titered to induce equivalent levels of infection based on cell killing or virus production, prior to their use in these assays. A range of test compound concentrations was added to the wells in triplicate (e.g., serial half-log dilutions) to evaluate inhibition of HIV infection. Controls for each assay included drug controls (drug colorimetric control wells), drug cytotoxicity control wells (cells with drug), virus control wells (cells with virus), and cell viability controls (cells only). Positive control drugs (e.g., AZT and ddC) were also run in parallel.
(§2) After six days of incubation at 37°C, cell viability was determined spectrophotometrically at 450 nm for each well, using the metabolic reduction of XTT to a soluble colored formazan. (See, Gartner and Popovic, "Virus Isolation and Production, in Aldovini and Walker (eds.), Techniques in HIV Research, Stockton Press, NY, pp. […] [1991]; and Nara and Fischinger, "Quantitative Infectivity Assay for HIV-1 and HIV-2," Nature 332:469-470 [1988]).
The in vitro therapeutic index (TI50) was defined as the fold-difference between the EC50 and IC50.

[3] = target: T1, HIV-1 WT RT (Human immunodeficiency virus type 1 group M subtype B, UniProt P03366); test: biochemical; conditions: for inhibition at 1 µM: read-out: %inhibn (1µM)
T1 construct: purified RT protein (0.015 mg/mL) was incubated in a 100 µL reaction mixture

[4] = tested on: HIV-1 variant L74V; test: Cytopathic cell killing assay, cross-resistance profile, infected MT-4 cells; format: cell-based; conditions: Human immunodeficiency virus 1, MT4
Text: (§3) The various HIV isolates tested in the Figures are those corresponding to wild-type virus (NL4-3) and the other strains listed by their RT mutations. The three 4xAZT isolates included in the Figures represent AZT drug-resistant variants. For example, the 4xAZT/L100I isolate has five mutations: four mutations confer increased resistance to AZT, and the other mutation is located within the NNRTI binding pocket. TZB and nevir. (nevirapine) are two well-known NNRTIs, included in this experiment for comparison purposes. […]
as §1, with “In this Example, the antiviral and cellular toxicity of NNRTIs was investigated, using the cytopathic cell killing assay described by Yang (Yang et al., "Characteristics of a Group of Non-nucleoside Reverse Transcriptase Inhibitors with Structural Diversity and Potent Anti-Human Immunodeficiency Virus Activity," Leukemia 9:S75-S85 [1995]). Briefly,” for “Briefly,”
as §2
(§4) The in vitro therapeutic index (TI50) was defined as the fold-difference between the EC50 and IC50. The results for the various compounds are included in Figures 8 and 19.

[5] = tested on: HIV-1 variant K103N; test: as above; format: cell-based; conditions: isolate K103N
Text: as §3
as §1, with “In this Example, the antiviral and cellular toxicity of NNRTIs was investigated, using the cytopathic cell killing assay described by Yang (Yang et al., "Characteristics of a Group of Non-nucleoside Reverse Transcriptase Inhibitors with Structural Diversity and Potent Anti-Human Immunodeficiency Virus Activity," Leukemia 9:S75-S85 [1995]). Briefly,” for “Briefly,”
as §2, §4

[6] = tested on: HIV-1 variant Y188H; test: as above; format: cell-based; conditions: Human immunodeficiency virus 1, MT4
Text: as §3
as §1, with “In this Example, the antiviral and cellular toxicity of NNRTIs was investigated, using the cytopathic cell killing assay described by Yang (Yang et al., "Characteristics of a Group of Non-nucleoside Reverse Transcriptase Inhibitors with Structural Diversity and Potent Anti-Human Immunodeficiency Virus Activity," Leukemia 9:S75-S85 [1995]). Briefly,” for “Briefly,”
as §2, §4

[7] = tested on: HIV-1 variant V179D; test: as above; format: cell-based; conditions: Human immunodeficiency virus 1, MT4
Text: as §3
as §1, with “In this Example, the antiviral and cellular toxicity of NNRTIs was investigated, using the cytopathic cell killing assay described by Yang (Yang et al., "Characteristics of a Group of Non-nucleoside Reverse Transcriptase Inhibitors with Structural Diversity and Potent Anti-Human Immunodeficiency Virus Activity," Leukemia 9:S75-S85 [1995]). Briefly,” for “Briefly,”
as §2, §4

[8] = tested on: HIV-1 variant L100I; test: as above; format: cell-based
Text: as §3
as §1, with “In this Example, the antiviral and cellular toxicity of NNRTIs was investigated, using the cytopathic cell killing assay described by Yang (Yang et al., "Characteristics of a Group of Non-nucleoside Reverse Transcriptase Inhibitors with Structural Diversity and Potent Anti-Human Immunodeficiency Virus Activity," Leukemia 9:S75-S85 [1995]). Briefly,” for “Briefly,”
as §2, §4

[9] = tested on: HIV-1 variant V106A; test: as above; format: cell-based; conditions: Human immunodeficiency virus 1, MT4
Text: as §3
as §1, with “In this Example, the antiviral and cellular toxicity of NNRTIs was investigated, using the cytopathic cell killing assay described by Yang (Yang et al., "Characteristics of a Group of Non-nucleoside Reverse Transcriptase Inhibitors with Structural Diversity and Potent Anti-Human Immunodeficiency Virus Activity," Leukemia 9:S75-S85 [1995]). Briefly,” for “Briefly,”
as §2, §4

[10] = tested on: HIV-1 variant V108I; test: as above; format: cell-based
Text: as §3
as §1, with “In this Example, the antiviral and cellular toxicity of NNRTIs was investigated, using the cytopathic cell killing assay described by Yang (Yang et al., "Characteristics of a Group of Non-nucleoside Reverse Transcriptase Inhibitors with Structural Diversity and Potent Anti-Human Immunodeficiency Virus Activity," Leukemia 9:S75-S85 [1995]). Briefly,” for “Briefly,”
as §2, §4

[11] = tested on: HIV-1 variant Y188C; test: as above; format: cell-based; conditions: Human immunodeficiency virus 1, MT4
Text: as §3
as §1, with “In this Example, the antiviral and cellular toxicity of NNRTIs was investigated, using the cytopathic cell killing assay described by Yang (Yang et al., "Characteristics of a Group of Non-nucleoside Reverse Transcriptase Inhibitors with Structural Diversity and Potent Anti-Human Immunodeficiency Virus Activity," Leukemia 9:S75-S85 [1995]). Briefly,” for “Briefly,”
as §2, §4

[12] = tested on: HIV-1 variant Y181C; test: as above; format: cell-based
Text: as §3
as §1, with “In this Example, the antiviral and cellular toxicity of NNRTIs was investigated, using the cytopathic cell killing assay described by Yang (Yang et al., "Characteristics of a Group of Non-nucleoside Reverse Transcriptase Inhibitors with Structural Diversity and Potent Anti-Human Immunodeficiency Virus Activity," Leukemia 9:S75-S85 [1995]). Briefly,” for “Briefly,”
as §2, §4

[13] = tested on: HIV-1 variant A98G; test: as above; format: cell-based; conditions: Human immunodeficiency virus 1, MT4
Text: as §3
as §1, with “In this Example, the antiviral and cellular toxicity of NNRTIs was investigated, using the cytopathic cell killing assay described by Yang (Yang et al., "Characteristics of a Group of Non-nucleoside Reverse Transcriptase Inhibitors with Structural Diversity and Potent Anti-Human Immunodeficiency Virus Activity," Leukemia 9:S75-S85 [1995]). Briefly,” for “Briefly,”
as §2, §4

[14] = tested on: HIV-1 variant K101E; test: as above; format: cell-based; conditions: isolate K101E
Text: as §3
as §1, with “In this Example, the antiviral and cellular toxicity of NNRTIs was investigated, using the cytopathic cell killing assay described by Yang (Yang et al., "Characteristics of a Group of Non-nucleoside Reverse Transcriptase Inhibitors with Structural Diversity and Potent Anti-Human Immunodeficiency Virus Activity," Leukemia 9:S75-S85 [1995]). Briefly,” for “Briefly,”
as §2, §4

[15] = tested on: HIV-1 variant M184l; test: as above; format: cell-based; conditions: Human immunodeficiency virus 1, MT4
Text: as §3
as §1, with “In this Example, the antiviral and cellular toxicity of NNRTIs was investigated, using the cytopathic cell killing assay described by Yang (Yang et al., "Characteristics of a Group of Non-nucleoside Reverse Transcriptase Inhibitors with Structural Diversity and Potent Anti-Human Immunodeficiency Virus Activity," Leukemia 9:S75-S85 [1995]). Briefly,” for “Briefly,”
as §2, §4

[16] = tested on: HIV-1 isolate 4xAZT; test: as above; format: cell-based; conditions: Human immunodeficiency virus 1, MT4
Text: as §3
as §1, with “In this Example, the antiviral and cellular toxicity of NNRTIs was investigated, using the cytopathic cell killing assay described by Yang (Yang et al., "Characteristics of a Group of Non-nucleoside Reverse Transcriptase Inhibitors with Structural Diversity and Potent Anti-Human Immunodeficiency Virus Activity," Leukemia 9:S75-S85 [1995]). Briefly,” for “Briefly,”
as §2, §4

[17] = tested on: HIV-1 isolate 4xAZT/Y181C; test: as above; format: cell-based; conditions: Human immunodeficiency virus 1, MT4
Text: as §3
as §1, with “In this Example, the antiviral and cellular toxicity of NNRTIs was investigated, using the cytopathic cell killing assay described by Yang (Yang et al., "Characteristics of a Group of Non-nucleoside Reverse Transcriptase Inhibitors with Structural Diversity and Potent Anti-Human Immunodeficiency Virus Activity," Leukemia 9:S75-S85 [1995]). Briefly,” for “Briefly,”
as §2, §4

[18] = tested on: NL4-3 (WT); test: as above; format: cell-based, HIV-1
Text: as §3
as §1, with “In this Example, the antiviral and cellular toxicity of NNRTIs was investigated, using the cytopathic cell killing assay described by Yang (Yang et al., "Characteristics of a Group of Non-nucleoside Reverse Transcriptase Inhibitors with Structural Diversity and Potent Anti-Human Immunodeficiency Virus Activity," Leukemia 9:S75-S85 [1995]). Briefly,” for “Briefly,”
as §2, §4

[19] = Human immunodeficiency virus 1, MT4, Table 8
[20] = Human immunodeficiency virus 1, MT4, Table 10 (values in µM)
[21] = Human immunodeficiency virus 1, MT4, Table 10 (values in µM), isolate L1001
[22] = Human immunodeficiency virus 1, MT4, Table 10 (values in µM), isolate V108l
[23] = Human immunodeficiency virus 1, NL43, MT4, Table 10 (values in µM), isolate NL4-3 (WT)

CCc1cccc2c1nc(-c1c(F)cccc1F)n2Cc1c(F)cccc1F [compound 47, 1-(2,6-difluorobenzyl)-2-(2,6-difluorophenyl)-4-ethylbenzimidazole]
EC50 [1]: 0.82 µM | EC50 [2]: 0.6 µM | IC50 [3]: 17.5 µM | inhibition at 1 µM [3]: 50% | EC50 [4]: 1.5 µM | EC50 [5, 19]: > 20 µM | EC50 [5, 20]: > 50 µM | EC50 [6]: 13.2 µM | EC50 [7]: 1.8 µM | EC50 ([8]; Human immunodeficiency virus 1, MT4, Table 8, isolate 1.1001): 0.6 µM | EC50 [8, 21]: 2.48 µM | EC50 [9]: > 20 µM | EC50 ([10]; Human immunodeficiency virus 1, MT4, Table 8, isolate V1081): 3 µM | EC50 [10, 22]: > 50 µM | EC50 [11]: 5.5 µM | EC50 ([12]; Human immunodeficiency virus 1, MT4): 7.18 µM | EC50 [13]: 8 µM | EC50 [14, 19]: > 20 µM | EC50 [14, 20]: > 50 µM | EC50 [15]: 0.96 µM | EC50 [16]: 1 µM | EC50 [17]: > 20 µM | EC50 ([18]; Human immunodeficiency virus 1, NL43, MT4, Table 8, isolate N1.43): 1.1 µM | EC50 [18, 23]: 0.9 µM

O=[N+]([O-])c1cccc2c1nc(-c1c(F)cccc1F)n2Cc1c(F)cccc1F [compound 48, 1-(2,6-difluorobenzyl)-2-(2,6-difluorophenyl)-4-nitrobenzimidazole]
EC50 ([1]; Table 7, concentration reducing cell killing or virus production by 50%, HIV-1 WT, read-out: EC50): 2.4 µM | IC50 ([3]; Table 7, HIV-1 WT RT, read-out: IC50): 1.88 µM | inhibition at 1 µM ([3]; Table 7, WT HIV-1 RT, 1 µM drug): 51% | EC50 [5, 20]: > 50 µM | EC50 [6]: > 50 µM | EC50 [8, 21]: 0.83 µM | EC50 [10, 22]: > 50 µM | EC50 ([12]; Human immunodeficiency virus 1, MT4, Table 10 (values in µM), isolate Y181C): > 50 µM | EC50 [14, 20]: > 50 µM | EC50 [15]: 3.69 µM | EC50 [18, 23]: 3.13 µM
